The text below walks through data of paper doi:10.1101/2022.11.06.515312v1 (biorxiv, 2022).

Common to all, as to details: 5-50 uM substrate, 1 h, 0.333 mM MES pH 5.7, 2% galactose
For one data set, the system named is OsLAT5. The data set is described as follows: uptake into yeast, UPLC-MS/MS, vector control subtracted. It counts as cell-based, Oryza sativa subsp. japonica.
Another data set deals with T1, OsLAT1 (Oryza sativa, UniProt Q6Z8D0).
T1 sequence (Q6Z8D0 1-531): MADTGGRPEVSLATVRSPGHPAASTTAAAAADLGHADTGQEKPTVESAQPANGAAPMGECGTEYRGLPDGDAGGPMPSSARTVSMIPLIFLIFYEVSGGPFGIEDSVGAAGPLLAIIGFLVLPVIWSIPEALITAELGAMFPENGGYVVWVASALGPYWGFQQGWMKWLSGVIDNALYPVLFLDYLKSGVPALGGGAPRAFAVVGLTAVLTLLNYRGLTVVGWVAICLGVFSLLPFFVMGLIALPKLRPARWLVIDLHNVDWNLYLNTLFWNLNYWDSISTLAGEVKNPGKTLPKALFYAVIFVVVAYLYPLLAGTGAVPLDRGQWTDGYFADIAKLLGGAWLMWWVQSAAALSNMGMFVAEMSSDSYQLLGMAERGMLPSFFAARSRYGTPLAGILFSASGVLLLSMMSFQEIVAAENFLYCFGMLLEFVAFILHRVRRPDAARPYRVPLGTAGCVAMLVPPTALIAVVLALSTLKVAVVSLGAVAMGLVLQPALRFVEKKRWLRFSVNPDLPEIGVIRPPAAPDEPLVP
The data set is described as above.

Substrate in data set [1]: c1cc[n+]2c(c1)-c1cccc[n+]1CC2
The data set is described as follows: cells, lysate or membranes.

As usually defined, the Km is the substrate concentration at which the rate is half of its maximum. On to `c1cc[n+]2c(c1)-c1cccc[n+]1CC2` [diquat, 1,10-ethylene-2,20-bipyridinium dibromide], for which the Km in the data set on OsLAT5 is 13.8 ± 3.24 µM.

`C[n+]1ccc(-c2cc[n+](C)cc2)cc1` [paraquat]: the results for the Km in the data set with OsLAT5 and on OsLAT1 were 11.7 ± 4.04 µM and 40.8 ± 9.61 µM, respectively.

B1: OsLAT1 (Oryza sativa Japonica Group) (protein)
chain: MADTGGRPEVSLATVRSPGHPAASTTAAAAADLGHADTGQEKPTVESAQPANGAAPMGECGTEYRGLPDGDAGGPMPSSARTVSMIPLIFLIFYEVSGGPFGIEDSVGAAGPLLAIIGFLVLPVIWSIPEALITAELGAMFPENGGYVVWVASALGPYWGFQQGWMKWLSGVIDNALYPVLFLDYLKSGVPALGGGAPRAFAVVGLTAVLTLLNYRGLTVVGWVAICLGVFSLLPFFVMGLIALPKLRPARWLVIDLHNVDWNLYLNTLFWNLNYWDSISTLAGEVKNPGKTLPKALFYAVIFVVVAYLYPLLAGTGAVPLDRGQWTDGYFADIAKLLGGAWLMWWVQSAAALSNMGMFVAEMSSDSYQLLGMAERGMLPSFFAARSRYGTPLAGILFSASGVLLLSMMSFQEIVAAENFLYCFGMLLEFVAFILHRVRRPDAARPYRVPLGTAGCVAMLVPPTALIAVVLALSTLKVAVVSLGAVAMGLVLQPALRFVEKKRWLRFSVNPDLPEIGVIRPPAAPDEPLVP
Turning to B1, in data set [1], the Km was 23.98 ± 6.77 µM.
